The subject of the experiment is MOLM-13 cells. Kind of experiment: MOLM-13 Cell Proliferation Assay (indicator of DHODH inhibition). It is filed as cell-based. To be noted: Homo sapiens, 72 Hours of culture, CellTiter-Glo, no uridine. An outline of the steps:
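Proliferation readout via CellTiter-Glo luminescence after 72 h compound treatment (37 °C, 5% CO2, 0.5% DMSO) of MOLM-13 cells seeded at 10^4 per well in RPMI 1640/10% FBS, used as a DHODH-inhibition indicator since these cells rely on de novo pyrimidine synthesis.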
In general terms: ATP-based viability assays read luminescence as a measure of living cells.

pIC50: −log10 of the molar value.

As a reminder, the pIC50 is −log10 of the IC50, conventionally taken in molar units. High values mean a low IC50, low ones a high IC50. In the case of `Oc1cc(Cl)ccc1C1c2[nH]c3ccc(Cl)cc3c2CCN1c1nccc(C(F)(F)F)n1` (stereo not drawn) [Compound 222, 5-chloro-2-{6-chloro-2-[4-(trifluoromethyl)pyrimidin-2-yl]-2,3,4,9-tetrahydro-1H-pyrido[3,4-b]indol-1-yl}phenol], the pIC50 was 8.46.
Compound `CC(C)c1ccc(C2c3[nH]c4cc(F)c(Cl)cc4c3CCN2c2ncc(F)cn2)cc1` (stereo not drawn) [Compound 50, 6-chloro-7-fluoro-2-(5-fluoropyrimidin-2-yl)-1-[4-(propan-2-yl)phenyl]-2,3,4,9-tetrahydro-1H-pyrido[3,4-b]indole] showed a pIC50 of 7.61.
The value for `CN1CCN(c2ncc([C@H]3c4[nH]c5ccc(-n6nccn6)cc5c4CCN3c3nc(C(F)(F)F)cc(C(F)(F)F)n3)cn2)CC1` [Compound 500, (1S)-2-[4,6-bis(trifluoromethyl)pyrimidin-2-yl]-1-[2-(4-methylpiperazin-1-yl)pyrimidin-5-yl]-6-(2H-1,2,3-triazol-2-yl)-2,3,4,9-tetrahydro-1H-pyrido[3,4-b]indole] was 9.10; that for `CN1CCN(c2ccc([C@H]3c4[nH]c5ccc(Cl)cc5c4CCN3c3ncnc(C(F)(F)F)n3)cn2)CC1` [Compound 491, (1S)-6-chloro-1-[6-(4-methylpiperazin-1-yl)pyridin-3-yl]-2-[4-(trifluoromethyl)-1,3,5-triazin-2-yl]-2,3,4,9-tetrahydro-1H-pyrido[3,4-b]indole] was 8.66; that for `Cc1nc(C)nc(N2CCc3c([nH]c4c(N)cc(Cl)cc34)C2c2ccc(N3CCOCC3)nc2)n1` (stereo not drawn) [Compound 321, 6-chloro-2-(4,6-dimethyl-1,3,5-triazin-2-yl)-1-[6-(morpholin-4-yl)pyridin-3-yl]-2,3,4,9-tetrahydro-1H-pyrido[3,4-b]indol-8-amine] was 8.15.
The value for `FC(F)(F)c1cc(C(F)(F)F)nc(N2CCc3c([nH]c4ccc(-n5nccn5)cc34)C2c2ccc(N3CCOCC3)nc2)n1` (stereo not drawn) [Compound 454, 2-[4,6-bis(trifluoromethyl)pyrimidin-2-yl]-1-[6-(morpholin-4-yl)pyridin-3-yl]-6-(2H-1,2,3-triazol-2-yl)-2,3,4,9-tetrahydro-1H-pyrido[3,4-b]indole] was 9.15.
`Cc1cc(C)nc(N2CCc3c([nH]c4ccc(Cl)cc34)C2c2cnc(N3CCOCC3)nc2)n1` (stereo not drawn) [Compound 308, 6-chloro-2-(4,6-dimethylpyrimidin-2-yl)-1-[2-(morpholin-4-yl)pyrimidin-5-yl]-2,3,4,9-tetrahydro-1H-pyrido[3,4-b]indole]: the pIC50 is 8.42.
The value for `Fc1cc2[nH]c3c(c2cc1Cl)CCN(c1ncccn1)C3c1ccc(C2CC2)cc1` (stereo not drawn) [Compound 45, 6-chloro-1-(4-cyclopropylphenyl)-7-fluoro-2-(pyrimidin-2-yl)-2,3,4,9-tetrahydro-1H-pyrido[3,4-b]indole] was 7.49.
To `Fc1c(Cl)ccc2[nH]c3c(c12)CCN(c1nccc(C(F)(F)F)n1)C3c1cnc(-n2ccnc2)nc1` (stereo not drawn) [Compound 193, 6-chloro-5-fluoro-1-[2-(1H-imidazol-1-yl)pyrimidin-5-yl]-2-[4-(trifluoromethyl)pyrimidin-2-yl]-2,3,4,9-tetrahydro-1H-pyrido[3,4-b]indole] belongs 8.42; to `Fc1cc2[nH]c3c(c2cc1Cl)CCN(c1nccc(Cl)n1)C3c1ccc(Cl)cc1` (stereo not drawn) [Compound 39, 6-chloro-1-(4-chlorophenyl)-2-(4-chloropyrimidin-2-yl)-7-fluoro-2,3,4,9-tetrahydro-1H-pyrido[3,4-b]indole], 7.99; to `FC(F)(F)c1ccnc(N2CCc3c([nH]c4ccc(Cl)cc34)C2c2ccc(N3C[C@@H]4C[C@H]3CO4)nc2)n1` (stereo partly drawn) [Compound 375, 6-chloro-1-{6-[(1S,4S)-2-oxa-5-azabicyclo[2.2.1]heptan-5-yl]pyridin-3-yl}-2-[4-(trifluoromethyl)pyrimidin-2-yl]-2,3,4,9-tetrahydro-1H-pyrido[3,4-b]indole], 8.17.
To `Cc1ccc([C@H]2c3[nH]c4ccc(Cl)cc4c3CCN2c2ncc(-c3ccccc3)cn2)c(F)c1F` [Compound 471, (1S)-6-chloro-1-(2,3-difluoro-4-methylphenyl)-2-(5-phenylpyrimidin-2-yl)-2,3,4,9-tetrahydro-1H-pyrido[3,4-b]indole] belongs 8.60; to `COc1ccc(C2c3[nH]c4ccc(Cl)cc4c3CCN2c2nccc(C(F)(F)F)n2)c(F)c1F` (stereo not drawn) [Compound 120, 6-chloro-1-(2,3-difluoro-4-methoxyphenyl)-2-[4-(trifluoromethyl)pyrimidin-2-yl]-2,3,4,9-tetrahydro-1H-pyrido[3,4-b]indole], 8.43.
As to `Cc1ccc(C2c3[nH]c4c(O)cc(Cl)cc4c3CCN2c2nccc(C(F)(F)F)n2)cc1` (stereo not drawn) [Compound 207, 6-chloro-1-(4-methylphenyl)-2-[4-(trifluoromethyl)pyrimidin-2-yl]-2,3,4,9-tetrahydro-1H-pyrido[3,4-b]indol-8-ol], the pIC50 is 8.66.
Turning to `Cc1nc(N2CCOCC2)nc(N2CCc3c([nH]c4ccc(Cl)cc34)C2c2cnc(N3CCOCC3)nc2)n1` (stereo not drawn) [Compound 296, 6-chloro-2-[4-methyl-6-(morpholin-4-yl)-1,3,5-triazin-2-yl]-1-[2-(morpholin-4-yl)pyrimidin-5-yl]-2,3,4,9-tetrahydro-1H-pyrido[3,4-b]indole], the pIC50 is 7.79.
In turn, `Fc1cnc(N2CCc3c([nH]c4cc(F)c(Cl)cc34)C2c2ccc(C(F)(F)F)cc2)nc1` (stereo not drawn) [Compound 35, 6-chloro-7-fluoro-2-(5-fluoropyrimidin-2-yl)-1-[4-(trifluoromethyl)phenyl]-2,3,4,9-tetrahydro-1H-pyrido[3,4-b]indole] had a pIC50 of 7.36.
The value for `Cc1cc(C#N)nc(N2CCc3c([nH]c4ccc(Cl)c(F)c34)C2c2ccc(F)cc2)n1` (stereo not drawn) [Compound 111, 2-[6-chloro-5-fluoro-1-(4-fluorophenyl)-1,3,4,9-tetrahydro-2H-pyrido[3,4-b]indol-2-yl]-6-methylpyrimidine-4-carbonitrile] was 8.09.
To `Cc1ccc(C2c3[nH]c4ccc(-n5nccn5)cc4c3CCN2c2nccc(C(F)(F)F)n2)c(F)c1F` (stereo not drawn) [Compound 502, 1-(2,3-difluoro-4-methylphenyl)-6-(2H-1,2,3-triazol-2-yl)-2-[4-(trifluoromethyl)pyrimidin-2-yl]-2,3,4,9-tetrahydro-1H-pyrido[3,4-b]indole] belongs 8.68; to `CN(C)c1ncc(C2c3[nH]c4cc(F)c(Cl)cc4c3CCN2c2ncc(F)cn2)cn1` (stereo not drawn) [Compound 14, 5-[6-chloro-7-fluoro-2-(5-fluoropyrimidin-2-yl)-2,3,4,9-tetrahydro-1H-pyrido[3,4-b]indol-1-yl]-N,N-dimethylpyrimidin-2-amine], 7.52; to `Cc1ccc([C@H]2c3[nH]c4ccc(-n5nccn5)cc4c3CCN2c2nc(C(F)(F)F)nc(C(F)(F)F)n2)c(F)c1F` [Compound 524, (1S)-2-[4,6-bis(trifluoromethyl)-1,3,5-triazin-2-yl]-1-(2,3-difluoro-4-methylphenyl)-6-(2H-1,2,3-triazol-2-yl)-2,3,4,9-tetrahydro-1H-pyrido[3,4-b]indole], 9.52.
To `Fc1nc(N2CCOCC2)ccc1C1c2[nH]c3ccc(Cl)cc3c2CCN1c1nccc(C(F)(F)F)n1` (stereo not drawn) [Compound 432, 6-chloro-1-[2-fluoro-6-(morpholin-4-yl)pyridin-3-yl]-2-[4-(trifluoromethyl)pyrimidin-2-yl]-2,3,4,9-tetrahydro-1H-pyrido[3,4-b]indole] belongs 8.80.

The record behind these values is patent US20250186437A1, “CARBOLINE COMPOUNDS AND USE THEREOF” (PTC Therapeutics, Inc., priority 2021, published 2025).
